Reference: patent US9164086B2, “Fluorescent dyes with phosphorylated hydroxymethyl groups and their use in light microscopy and imaging techniques” (Max-Planck-Gesellschaft zur Foerderung der Wissenschaften …, priority 2011, dated 2015)
Entries after “also recorded” stand apart in the source; their conditions may differ. Each block holds one compound with its values, some of them ahead of it.

Key:
[1] = UV-visible absorption spectra; format: physicochemical; conditions: for λabs of the conjugate: conjugate with sheep anti-mouse IG
Method: (§1) UV-visible absorption spectra were recorded on a Varian Cary 4000 UV-Vis spectrophotometer, and fluorescence spectra on a Varian Cary Eclipse fluorescence spectrophotometer. Reactions were carried out with magnetic stirring in Schlenk flasks equipped with septa or reflux condensers with bubble-counters under argon using a standard manifold with vacuum and argon lines. The MICROTOF spectrometer equipped with ESI ion source Apollo and direct injector with LC autosampler Agilent RR 1200 was used for obtaining mass spectra and high resolution mass-spectra (ESI-HRMS). ESI-HRMS were obtained also on APEX IV spectrometer (Bruker). ESI spectra were also obtained on a Varian 500MS spectrometer in some cases. HPLC system (Knauer): Smartline pump 1000 (2×), UV detector 2500, column thermostat 4000 (25° C.), mixing chamber, injection valve with 20 and 100 μL loop for analytical and preparative columns, respectively; 6-port-3-channel switching valve; analytical column: Eurospher-100 C18, 5 μm, 250×4 mm, 1.2 mL/min; preparative column: Eurospher-100-5 C18, 5 μm, 250×8 mm, 4 mL/min; solvent A: water+0.1% v/v trifluoroacetic acid (TFA); solvent B: CH3CN+0.1% v/v TFA; detection at 636 nm (if not stated otherwise). Normal phase analytical TLC was performed on MERCK ready-to-use plates with silica gel 60 (F254).

[2] = Fluorescence spectra, quantum yield and excited state lifetime; format: physicochemical; conditions: for λem of the conjugate / Φfl. of the conjugate: conjugate with sheep anti-mouse IG; for Φfl. of the conjugate / Φfl.: as fraction; for fluorescence quantum yield of the antibody conjugates obtained from the dye: after attaching to antibodies
Method: as §1

Solubility (qualitative) = format: physicochemical; conditions: for solubility in other solvents and buffers: solvents named in the value
[3] = commercial dyes, solvent not stated; cited from earlier work

SMILES: CC1(C)C=C(CS(=O)(=O)O)c2cc3cc(-c4ccncc4)c(=O)oc3cc2N1CCCC(=O)ON1C(=O)CCC1=O [Compound 20-NHS, reference compound]
λabs of the conjugate ([1]; PBS buffer at pH 7.4): 437 nm
λem of the conjugate ([2]; PBS buffer at pH 7.4): 512 nm
Φfl. of the conjugate ([2]; PBS buffer at pH 7.4): 0.18

SMILES: CC1(C)C=C(CS(=O)(=O)O)c2cc3c(C(F)(F)F)cc(=O)oc3cc2N1CCCCCC(=O)ON1C(=O)CCC1=O.CCN(CC)CC [Alexa Fluor™ 430]
absorption maximum [3]: 434 nm
emission maximum [3]: 539 nm

SMILES: CC(C)(C)OC(=O)CCCN1c2cc3oc(=O)c(-c4ccncc4)cc3cc2C(COP(=O)(OC(C)(C)C)OC(C)(C)C)=CC1(C)C [Compound 10]
ε ([1]; MeOH): 30700 M⁻¹ cm⁻¹
ε · 10^−4 ([1]; MeOH): 3.07 M^−1 cm^−1
λmax (abs.) ([1]; MeOH): 430 nm
fluorescence quantum yields (in words) [2]: high
Φfl (fluorescence quantum yield) ([2]; MeOH): 82%
λmax (fl.) ([2]; MeOH): 501 nm
Φfl. ([2]; MeOH): 0.82
Remarks: solubility in water (Solubility (qualitative); water): Low solubility in water

SMILES: CN(CCCC(=O)O)C(=O)c1c(F)c(F)c(F)c(F)c1C1=c2cc3c4c(c2Oc2c1cc1c5c2CCCN5C(C)(C)C=C1CO)CCC[N+]=4C(C)(C)C=C3CO [Compound 24-H]
ε · 10^−4 ([1]; H2O): 8.6 M^−1 cm^−1
λmax (abs.) ([1]; H2O): 632 nm
Φfl (fluorescence quantum yield) ([2]; H2O): 85%
λmax (fl.) ([2]; H2O): 654 nm
fluorescence quantum yield of the antibody conjugates obtained from the dye [2]: 66%
solubility in aqueous buffers (Solubility (qualitative); aqueous buffers): low solubility in aqueous buffers
solubility in other solvents and buffers (Solubility (qualitative)): well-soluble in MeOH, CH3CN, and chlorinated solvents
Remarks: solubility in water (Solubility (qualitative); water): Limited solubility in water
solubility in water (Solubility (qualitative); water): slightly soluble in water

SMILES: CC1(C)C=C(COP(=O)(O)O)c2cc3cc(-c4ccncc4)c(=O)oc3cc2N1CCCC(=O)ON1C(=O)CCC1=O [Compound 12]
λabs of the conjugate ([1]; PBS buffer at pH 7.4): 439 nm
λem of the conjugate ([2]; PBS buffer at pH 7.4): 513 nm
Φfl. of the conjugate ([2]; PBS buffer at pH 7.4): 0.30

SMILES: CN(CCCC(=O)O)C(=O)c1c(F)c(F)c(F)c(F)c1C1=c2cc3c4c(c2Oc2c1cc1c5c2CCCN5C(C)(C)C=C1COP(=O)(O)O)CCC[N+]=4C(C)(C)C=C3COP(=O)([O-])O [Compound 26-H]
ε · 10^−4 ([1]; H2O): 7.5 M^−1 cm^−1
λmax (abs.) ([1]; H2O): 635 nm
Φfl (fluorescence quantum yield) ([2]; H2O): 83%
λmax (fl.) ([2]; H2O): 655 nm
τ1 (lifetime of the excited state) ([2]; H2O, monoexponential fit): 3.0 ns
fluorescence quantum yield of the antibody conjugates obtained from the dye [2]: 51%
solubility in other solvents and buffers (Solubility (qualitative)): well-soluble in aq. NaHCO3, alkali, Et3N, and PBS buffers, MeOH; also recorded: insoluble in acetone, CH3CN, chloroform

More lines, now with the values ahead:

ε ([1]; MeOH): 33400 M⁻¹ cm⁻¹
ε · 10^−4 ([1]; MeOH): 3.34 M^−1 cm^−1
λmax (abs.) ([1]; MeOH): 437 nm
fluorescence quantum yields (in words) [2]: high
Φfl (fluorescence quantum yield) ([2]; MeOH): 77%
λmax (fl.) ([2]; MeOH): 507 nm
Φfl. ([2]; MeOH): 0.77
Remarks: solubility in water (Solubility (qualitative); water): Low solubility in water
SMILES: CCOC(=O)CCCN1c2cc3oc(=O)c(-c4ccncc4)cc3cc2C(C)=CC1(C)C [Compound 18, reference compound]

ε · 10^−4 ([1]; PBS (7.4)): 2.27 M^−1 cm^−1
λmax (abs.) ([1]; PBS (7.4)): 436 nm
ε ([1]; PBS buffer at pH 7.4): 22700 M⁻¹ cm⁻¹
Stokes shift [2]: 79 nm
fluorescence quantum yields (in words) [2]: high
Φfl (fluorescence quantum yield) ([2]; PBS (7.4)): 68%
λmax (fl.) ([2]; PBS (7.4)): 515 nm
τ1 (lifetime of the excited state) ([2]; PBS (7.4)): 3.3 ns
Φfl. ([2]; PBS buffer at pH 7.4): 0.68
fluorescence quantum yield of the antibody conjugates obtained from the dye [2]: 30%
SMILES: CC1(C)C=C(COP(=O)(O)O)c2cc3cc(-c4ccncc4)c(=O)oc3cc2N1CCCC(=O)O [Compound 11]

ε ([1]; MeOH): 25900 M⁻¹ cm⁻¹
ε · 10^−4 ([1]; MeOH): 2.59 M^−1 cm^−1
λmax (abs.) ([1]; MeOH): 436 nm
ε · 10^−4 ([1]; PBS (7.4)): 3.12 M^−1 cm^−1
λmax (abs.) ([1]; PBS (7.4)): 436 nm
ε ([1]; PBS buffer at pH 7.4): 31200 M⁻¹ cm⁻¹
fluorescence quantum yields (in words) [2]: high
Φfl (fluorescence quantum yield) ([2]; MeOH): 56%
λmax (fl.) ([2]; MeOH): 510 nm
Φfl. ([2]; MeOH): 0.56
Φfl (fluorescence quantum yield) ([2]; PBS (7.4)): 57%
λmax (fl.) ([2]; PBS (7.4)): 515 nm
Φfl. ([2]; PBS buffer at pH 7.4): 0.57
fluorescence quantum yield of the antibody conjugates obtained from the dye [2]: 18%
SMILES: CC1(C)C=C(CS(=O)(=O)O)c2cc3cc(-c4ccncc4)c(=O)oc3cc2N1CCCC(=O)O [Compound 20-H, reference compound]
